Molecules are shown by their SMILES.

Series [1] has as its system cutaneous warts (verrucae vulgaris). The experiment in a line: Oral Diindolylmethane with Pregnenolone for cutaneous warts (case three). The format is in vivo, human. Conditions: patient three; dose increased to maximum of 150 mg/day over 6 weeks.
Protocol: Pregnenolone at 50 mg/day in a capsule form was added for immune enhancement.
Series [2] relates to verrucae involving the plantar skin. Nature of the series: Oral Diindolylmethane for childhood warts (case two). The format is in vivo, human. The settings on record: child two; 75 mg/day (3 mg/kg/day). An excerpt:
The usefulness of oral forms of Diindolylmethane in treating verrucous disease of childhood is illustrated by the case of C. B. The subject is a child with classic verrucae involving the plantar skin of one foot. The process began as a single wart, which was frozen with liquid nitrogen by a pediatrician. […] Within 2 months, however, a new wart recurred at the sight of the original scar. Upon recurrence the primary lesion measured approximately 0.75 cm in diameter but was now circled by a number of smaller satellite lesions surrounding the recurrent primary wart.
Treatment was initiated with 75 mg/day of Diindolylmethane in an absorbable formulation (300 mg total formula weight). With the patient weighing 25 kg, this provided 3 mg/kg/day of Diindolylmethane and 12 mg/kg/day of the formulation. […] There was no pain or scarring associated with the gradual resolution.

Series [3] deals with HPV-related cervical dysplasia. Nature of the series: Oral Diindolylmethane for HPV-related cervical dysplasia (case histories and open pilot study). Conditions: four women, 112 mg/day actual Diindolylmethane.
Description: Women with moderate to severe dyplasia on cervical biopsies volunteered for an open trial of oral Diindolylmethane supplementation.
Four women, meeting the criteria of moderate to severe HPV-related cervical dysplasia were included in a pilot study.
The conditions of series [4]: human, in vivo. The method, then: The subject is preferably fasting and plasma is preferred over serum. In this method 120 mg or more of formulated DIM (30 mg or more of actual DIM) are taken orally by a subject fasting for at least 4 hours along with 8 ounces of water. Blood samples are obtained on a timed basis between 120 and 180 minutes after ingesting the DIM. Samples obtained during this timeframe are analyzed by a Gas Chromatography Mass Spectrometry (GC-MS) technique. Circulating amounts of DIM during this timeframe are maximal levels following a single dose. […] The following steps describe the method for determining amounts of absorbed DIM in blood. • 1. […] The following ions are monitored: m/z 390 (primary), 391,392 (confirmatory). Area for peak 390 is measured. • 9. […]
For blood level studies adult subjects were studied in a fasting state. […] Sample analysis using a technique for GC-MS measurement of Diindolylmethane, involving acetonitrile extraction, silyation, and GC-MS quantitation was performed as adapted from the literature (Stresser, D. M., Bjeldanes, L. F., Bailey, G. S., et al., “The anticarcinogen 3,3′-Diindolylmethane is an inhibitor of cytochrome P-450”, J. Biochem. Toxicol., 10(4):191-201 (1995)) and described in section 4.2 above. […]

Series [5] is described as follows: Urinary Diindolylmethane levels by GC-MS after a single oral dose. The series is classed as in vivo, human. The settings on record: for Urinary DIM: 75 mg oral dose (300 mg of 25% formulation), single individual. The method, then:
The invention also provides a method for determining the urine level of DIM in a subject following oral administration of Diindolylmethane. In this method 300 mg or more of formulated DIM (75 mg or more of actual DIM) are taken with 8 ounces of water. Urine samples are obtained every 90 minutes for a period of 360 minutes. GC-MS operating conditions included were based on a published GC-MS analysis technique for DIM in urine (Sepkovic D W, Bradlow H L, Bell M, “Quantitative Determination of 3,3′-Diindolylmethane in the Urine of Individuals Receiving Indole-3-Carbinol” J. Nutrition (2002 in press). The following technique for analyzing DIM in urine samples was used: • 1. A 1 cc aliquot of urine for assay of diindolylmethane is mixed with 1 cc of sodium acetate buffer (pH 4.8) and 20 ul Beta-Glucuronidase from Helix Pomatia (110,200 units/ml: Sigma, St. Louis, Mo.). • 2. The solution is incubated at 40° C. for 24 hours. • 3. An internal standard of 4,4′dichlorodiindolylmethane is then added. • 4. The sample is then extracted in twice equal volume of chloroform and the sample vortexed and reduced to dryness under vacuum. • 5. The dried residue is dissolved in 20 uL of anhydrous pyridine and derivatized with 80 ul of N2O-bis-(timethyl-silyl)trifluoroacetamide (BFSTA) (Pierce Biochemical Co, Rockford, Ill.). The sample is heated to 100° C. for one hour. • 6. The derivatized sample is then injected into a Gas Chromatography Mass Spectrometer (GC-MS) in single ion monitoring mode recording results at a derivatized mass of 390. The following ions are monitored: m/z 390 (primary), 391,392 (confirmatory). Area for peak 390 is measured. • 7. Peaks are compared to a standard curve for pure diindoylylmethane in known concentrations as a standard. • 8. Creatinine in each 90 minute timed urine sample was measured by a standard Kinetic Alkaline Picrate (KAP) colormetric assay with results in mg of creatinine per cc of urine. • 9. Results obtained for DIM from the 1 cc aliquot of each timed urine sample are reported as nanograms of DIM per mg of Creatinine. This permits comparisons of urine samples of different water content in different timed samples eliminating the effects of changing hydration status of the human subject.
A related gas chromatography-mass spectrometry (GC-MS) method for the quantitation of Diindolylmethane in urine was developed. This technique is simpler, requiring less sample preparation but similar use of GC-MS analysis and provides results expressed as nanograms of Diindolylmethane per mg of Creatinine (ng DIM per mg Cre). Since production rates of Creatinine (Cre) are constant in an individual this technique allows comparison of urine samples from different times having differing water content. Sepkovic, D. W., Bradlow, H. L. Bell, M., Quantitative Determination of 3,3′-Diindolylmethane in the Urine of Individuals Receiving Indole-3-Carbinol, J. Nutrition (in press 2002).
A single individual was studied after taking 75 mg Diindolylmethane (300 mg of a 25% absorption-enhance formulation of Diindolylmethane) as a single dose after waiting 4 days since prior use of Diindolylmethane. Urine samples were collected every 90 minutes for a total of 360 minutes, frozen, and subsequently analyzed as described.

Series [6] deals with laryngeal papillomatosis. The settings on record: cited from earlier work.
Series [7] concerns cervical intraepithelial neoplasia (CIN). The settings on record: after 3 months on either 200 mg/day or 400 mg/day of I3C; 8 of 17; cited from earlier work.
The subject of series [8] is Recurrent Laryngeal Papillomatosis (RRP). The experiment in a line: Oral therapy of Recurrent Laryngeal Papillomatosis in a child (case one). The format is in vivo, human. The settings on record: child A. L.; oral I3C 5-7 mg per kg, 6 months; no lengthening of intervals between surgical procedures. The method, then: The following describes oral Diindolylmethane therapy for the Recurrent Laryngeal Papillomatosis (RRP), a rare condition in which wart like lesions develop in and around the larynx and vocal cords in association with HPV. patient one is a child with RRP. They were diagnosed with RRP. Before Diindolylmethane therapy they had undergone 21 laryngoscopic surgical procedures for recurrent laryngeal papillomas compromising their airway. […] Tracheostomy was performed in 1998 to provide a more secure airway. Diindolylmethane in an absorbable formulation according to U.S. Pat. No. […] Surgical frequency increased immediately to two months.

Setting [9] is: dietary supplementation with I3C, laryngeal papillomatosis.

As to `c1ccc2c(Cc3c[nH]c4ccccc34)c[nH]c2c1` [Diindolylmethane], in series [1], the Side effects result is on record as “without side effects”. Also, the “Side effects associated with the oral treatment” value in series [2] is recorded as “No side effects”. Further, the “Side effects or adverse events” value in series [3] was “no significant side effects or adverse events”. Further, the “Augmentation in Diindolylmethane blood levels from the low to high dose” value in series [4] is on record as “more than 3 times”. In addition, the “Urinary DIM” value turned out to be 2.6 ng/mg Cre in series [5] (90 minutes), 3.82 ng/mg Cre in series [5] (180 minutes), 3.30 ng/mg Cre in series [5] (270 minutes) and 2.50 ng/mg Cre in series [5] (360 minutes). Moreover, the “Plateau of urinary Diindolylmethane” value in series [5] (75 mg oral dose, around 180 minutes following oral dosing) is given as 3.5 ng/mg Creatinine.

As to `OCc1c[nH]c2ccccc12` [I3C, Indole-3-carbinol], the “Doses with neurologic and gastrointestinal toxicity” value in series [6] (clinical use of I3C) is given as “more than 400 mg per day”. Moreover, in series [6] (setting [9]), the “Disappearance of existing lesions” value is on record as “did not result in the disappearance of existing lesions in any patient” and the “Patients with cessation of papilloma growth” value is 33%. Also, the Maximal tolerated dose in series [6] (gastrointestinal and central nervous system side effects on increasing the dose) is 5 to 7 mg/kg. The “Treated patients with normalized cervical biopsy” value in series [7] was 50%. Besides, the “Clinical response of laryngeal papillomas” value in series [8] is on record as “failed to produce clinical improvement”.
